In patent publication US8796244B2, “Imidazopyridine derivatives as inhibitors of receptor tyrosine kinases” (Astex Therapeutics Ltd, priority 2008, dated 2014):
Counter-ions that a name gives are not always drawn.

System: LP-1 cell line (FGF-1/Heparin induced pERK)
Test: Cell-based pERK ELISA, LP-1 cells
Settings: Homo sapiens, LP-1, read-out: LP-1 pERK ELISA (μM)

IC50 [µM] | Structure (SMILES)
1.9 | Cc1nccn1-c1ccn2c(-c3cccc(NC(=O)NCC(F)(F)F)c3)cnc2c1 [Example 116, 1-{3-[7-(2-Methylimidazol-1-yl)-1,7-dihydroimidazol[1,2-a]pyridin-3-yl]-phenyl}-3-(2,2,2-trifluoroethyl)urea]
0.032 | O=C(NCC(F)(F)F)Nc1cccc(-c2cnc3cc(C#Cc4cccnc4)ccn23)c1 [Example 11, 1-[3-(7-Pyridin-3-ylethynylimidazo[1,2-a]pyridin-3-yl)phenyl]-3-(2,2,2-trifluoroethyl)urea]
0.52 | Cc1cc(=O)n2nc(-c3ccn4c(-c5cccc(NC(=O)NCC(F)(F)F)c5)cnc4c3)sc2n1 [Example 27, 1-{3-[7-(7-Methyl-5-oxo-5H-[1,3,4]thiadiazolo[3,2-a]pyrimidin-2-yl)imidazo[1,2-a]pyridin-3-yl]phenyl}-3-(2,2,2-trifluoroethyl)urea]

Structure (SMILES) | IC50 [µM]
O=C(NCC(F)(F)F)Nc1cccc(-c2cnc3cc(-c4ccc(N5CCC5)nn4)ccn23)c1 [Example 82, 1-{3-[7-(6-Azetidin-1-yl-pyridazin-3-yl)-imidazo[1,2-a]pyridin-3-yl]-phenyl}-3-(2,2,2-trifluoro-ethyl)-urea hydrochloride] | 0.0067

Same assay, conditions: Homo sapiens, LP-1, read-out: LP-1 pERK ELISA, % inhibition

Structure (SMILES) | inhibition at 3 µM [%] | inhibition at 10 µM [%]
Cn1cc(-c2ccn3c(-c4cccc(NC(=O)NCC(F)(F)F)c4)cnc3c2)c(CN)n1 [Example 57, 1-{3-[7-(3-Aminomethyl-1-methyl-1H-pyrazol-4-yl)-imidazo[1,2-a]pyridin-3-yl]-phenyl}-3-(2,2,2-trifluoro-ethyl)-urea] | 40 | –
Nc1ccn2c(-c3cccc(NC(=O)NCC(F)(F)F)c3)cnc2c1 [Example 115, 1-[3-(7-Aminoimidazol[1,2-a]pyridin-3-yl)phenyl]-3-(2,2,2-trifluoroethyl)urea] | – | 0

System: parental wild-type Ba/F3 cells
Test: Ba/F3 (WT) cell proliferation assay (Alamar Blue)
Format: cell-based
Settings: Mus musculus, BaF3, 72 h, read-out: BaF3 WT prolif (μM)

Structure (SMILES) | IC50 [µM]
O=C(NCC(F)(F)F)Nc1cccc(-c2cnc3cc(-c4cccc(CCO)c4)ccn23)c1 [Example 107, 1-(3-{7-[3-(2-Hydroxy-ethyl)-phenyl]-imidazo[1,2-a]pyridin-yl}-phenyl)-3-(2,2,2-trifluoro-ethyl)-urea formate] | 0.89
Cc1nnc(-c2ccn3c(-c4cccc(NC(=O)NCC(F)(F)F)c4)cnc3c2)nc1C [Example 118, 1-{3-[7-(5,6-Dimethyl-[1,2,4]triazin-3-yl)-imidazo[1,2-a]pyridin-3-yl]-phenyl}-3-(2,2,2-trifluoro-ethyl)-urea hydrochloride] | 0.88
Nc1cccc(-c2ccn3c(-c4cccc(NC(=O)NCC(F)(F)F)c4)cnc3c2)n1 [Example 106, 1-{3-[7-(6-Amino-pyridin-2-yl)-imidazo[1,2-a]pyridin-3-yl]-phenyl}-3-(2,2,2-trifluoro-ethyl)-urea hydrochloride] | 0.41

Same assay, conditions: Mus musculus, BaF3, read-out: BaF3 WT prolif, % inhibition

Structure (SMILES) | inhibition at 3 µM [%] | inhibition at 10 µM [%]
O=C(NCC(F)(F)F)Nc1cccc(-c2cnc3cc(-c4nccc(=O)[nH]4)ccn23)c1 [Example 190] | 35 | –
Nc1cnc(-c2ccn3c(-c4cccc(NC(=O)NCC(F)(F)F)c4)cnc3c2)nc1N [Compound 312] | – | 3
CC(=O)c1cnc(-c2ccn3c(-c4cccc(NC(=O)NCC(F)(F)F)c4)cnc3c2)nc1N [Compound 308] | – | 0
Cc1nnc(-c2ccn3c(-c4cccc(NC(=O)NC5CC5)c4)cnc3c2)o1 [Example 157, 1-Cyclopropyl-3-{3-[7-(5-methyl-[1,3,4]oxadiazol-2-yl)-imidazo[1,2-a]pyridin-3-yl]-phenyl}-urea] | – | 38
O=C(NCC(F)(F)F)Nc1cccc(-c2cnc3cc(-c4ccc(OC5CCCNC5)nn4)ccn23)c1 (stereo not drawn) [Example 131, 1-(3-{7-[6-(Piperidin-3-yloxy)-pyridazin-3-yl]-imidazo[1,2-a]pyridin-3-yl}-phenyl)-3-(2,2,2-trifluoro-ethyl)-urea] | – | 2.9
O=C(NCC(F)(F)F)Nc1cccc(-c2cnc3cc(-c4nccc(-n5ccnc5)n4)ccn23)c1 [Example 213] | – | 22
CCOC(=O)Nc1nc(-c2ccn3c(-c4cccc(NC(=O)NCC(F)(F)F)c4)cnc3c2)ncc1F [Compound 315] | – | 35
CCOc1cnc(-c2ccn3c(-c4cccc(NC(=O)NCC(F)(F)F)c4)cnc3c2)nc1 [Example 240] | – | 17
Nc1cnc(-c2ccn3c(-c4cccc(NC(=O)NCC(F)(F)F)c4)cnc3c2)nc1Cl [Example 170] | 14 | –
Nc1nc(-c2ccn3c(-c4cccc(NC(=O)NCC(F)(F)F)c4)cnc3c2)ccc1C(F)(F)F [Example 231] | – | 23
Cc1nc(N)cc(-c2ccn3c(-c4cccc(NC(=O)NCC(F)(F)F)c4)cnc3c2)n1 [Example 208] | – | 21
Cc1cc(-c2ccn3c(-c4cccc(NC(=O)NCC(F)(F)F)c4)cnc3c2)nc(C(C)C)n1 [Example 226] | – | 40
CNc1cc(-c2ccn3c(-c4cccc(NC(=O)NCC(F)(F)F)c4)cnc3c2)nc(SC)n1 [Example 218] | – | 30
NC(=O)c1ccc(-c2ccn3c(-c4cccc(NC(=O)NCC(F)(F)F)c4)cnc3c2)nc1 [Example 207] | – | 14
CN(C)S(=O)(=O)n1ccnc1-c1ccnc(-c2ccn3c(-c4cccc(NC(=O)NCC(F)(F)F)c4)cnc3c2)n1 [Example 216] | – | 28
O=C(NCC(F)(F)F)Nc1cccc(-c2cnc3cc(-c4ccnc(C(F)(F)F)n4)ccn23)c1 [Example 199] | – | 62
NC(=O)c1ccnc(-c2ccn3c(-c4cccc(NC(=O)NCC(F)(F)F)c4)cnc3c2)c1 [Example 209] | – | 0
O=C(NCC(F)(F)F)Nc1cccc(-c2cnc3cc(-c4nccc(C(=O)N5CCOCC5)n4)ccn23)c1 [Example 221] | 21 | –
O=C(NCC(F)(F)F)Nc1cccc(-c2cnc3cc(-c4nnc(CCN5CCCC5)s4)ccn23)c1 [Example 241] | – | 4.2
O=C(NCC(F)(F)F)Nc1cc(CO)cc(-c2cnc3cc(-c4ccnc(C(F)(F)F)n4)ccn23)c1 [Compound 295] | – | 30
O=C(NCC(F)(F)F)Nc1cc(F)cc(-c2cnc3cc(-c4ncccn4)ccn23)c1 [Compound 302] | – | 0
Cc1nnc(-c2ccn3c(-c4cccc(NC(N)=O)c4)cnc3c2)o1 [Compound 328] | 34 | –
O=C(NCC(F)(F)F)Nc1cccc(-c2cnc3cc(-c4ncc(F)c(NC5CC5)n4)ccn23)c1 [Example 180] | – | 42
CC(=O)c1cnc(-c2ccn3c(-c4cccc(NC(=O)NCC(F)(F)F)c4)cnc3c2)nc1 [Compound 292] | – | 38
CNc1nc(-c2ccn3c(-c4cccc(NC(=O)NCC(F)(F)F)c4)cnc3c2)ncc1N [Compound 313] | – | 18

Same assay, conditions: Mus musculus, BaF3; 72 hours, Alamar Blue; read-out: BaF3 WT prolif

Structure (SMILES) | IC50 [µM]
O=C(NCC(F)(F)F)Nc1cccc(-c2cnc3cc(-c4cc(F)ccn4)ccn23)c1 [Example 103, 1-{3-[7-(4-Fluoro-pyridin-2-yl)-imidazo[1,2-a]pyridin-3-yl]-phenyl}-3-(2,2,2-trifluoro-ethyl)-urea] | 0.078
Cc1nc(-c2ccn3c(-c4cccc(NC(=O)NCC(F)(F)F)c4)cnc3c2)ccc1F [Example 172] | 3.4
O=C(Nc1cccc(-c2cnc3cc(-c4nncs4)ccn23)c1)NC1CC1 [Example 158, 1-Cyclopropyl-3-[3-(7-[1,3,4]thiadiazol-2-yl-imidazo[1,2-a]pyridin-3-yl)-phenyl]-urea] | 2.9
Cc1cnnc(-c2ccn3c(-c4cccc(NC(=O)NCC(F)(F)F)c4)cnc3c2)n1 [Example 142, 1-{3-[7-(5-Methyl-[1,2,4]triazin-3-yl)-imidazo[1,2-a]pyridin-3-yl]-phenyl}-3-(2,2,2-trifluoro-ethyl)-urea] | 1.1
CC(C)(C(=O)NC1CC1)n1cc(-c2ccn3c(-c4cccc(NC(=O)NCC(F)(F)F)c4)cnc3c2)cn1 [Example 71, N-Cyclopropyl-2-[4-(3-{3-[3-(2,2,2-trifluoro-ethyl)-ureido]-phenyl}-imidazo[1,2-a]pyridin-yl)-pyrazol-1-yl)-isobutyramide] | 1.5
O=C(NCC(F)(F)F)Nc1cc(Cl)cc(-c2cnc3cc(-c4ncccn4)ccn23)c1 [Compound 309] | 2.3
O=C(NCC(F)(F)F)Nc1cc(Cl)cc(-c2cnc3cc(-c4ccnc(C(F)(F)F)n4)ccn23)c1 [Compound 297] | 5.5
CNC(=O)c1ccnc(-c2ccn3c(-c4cccc(NC(=O)NCC(F)(F)F)c4)cnc3c2)n1 [Example 220] | 1.5
CC(C)(C)OC(=O)NCC1CCN(c2ccc(-c3ccn4c(-c5cccc(NC(=O)NCC(F)(F)F)c5)cnc4c3)cn2)CC1 [Compound 318] | 0.42
CC(=O)N1CCN(c2ccc(-c3ccn4c(-c5cccc(NC(=O)NCC(F)(F)F)c5)cnc4c3)cn2)CC1 [Example 145, 1-(3-{7-[6-(4-Acetyl-piperazin-1-yl)-pyridin-3-yl]-imidazo[1,2-a]pyridin-3-yl}-phenyl)-3-(2,2,2-trifluoro-ethyl)-urea] | 0.82
CCNC(=O)Nc1cccc(-c2cnc3cc(-c4ncc(C(F)(F)F)c(N)n4)ccn23)c1 [Example 235] | 1.2
CN(C)c1cc(-c2ccn3c(-c4cccc(NC(=O)NCC(F)(F)F)c4)cnc3c2)nc(C(F)(F)F)n1 [Example 214] | 2.6
O=C(NCC(F)(F)F)Nc1cc(-c2cnc3cc(-c4ncccn4)ccn23)cc(C(F)(F)F)c1 [Compound 301] | 2.81
Nc1cc(-c2ccn3c(-c4cccc(NC(=O)NCC(F)(F)F)c4)cnc3c2)ncc1C(F)(F)F [Example 234] | 6.4
Cn1ccnc1/C=C/c1ccn2c(-c3cccc(NC(=O)NCC(F)(F)F)c3)cnc2c1 [Example 189] | 3.4
COc1cnc(Cl)nc1-c1ccn2c(-c3cccc(NC(=O)NCC(F)(F)F)c3)cnc2c1 [Example 139, 1-{3-[7-(2-Chloro-5-methoxy-pyrimidin-4-yl)-imidazo[1,2-a]pyridin-3-yl]-phenyl}-3-(2,2,2-trifluoro-ethyl)-urea] | 3.6
CCOC(=O)c1cnc(-c2ccn3c(-c4cccc(NC(=O)NCC(F)(F)F)c4)cnc3c2)nc1N [Compound 287] | 0.99
